Measured values: patent publication US20240279263A1, “NOVEL SEA ALGAE-DERIVED ALKYL-AGARBIOSIDE, PREPARATION METHOD THEREFOR, OR USE THEREOF” (KOREA UNIVERSITY RESEARCH AND BUSINESS FOUNDATION, priority 2021, published 2024)

Assays:
[1] = pH stability (degree of denaturation over time at 25° C.); type: physicochemical; conditions: for Stability over time at pH 3: pH 3 (20 mM citrate); for Stability over time at pH 7: pH 7 (20 mM Tris-HCl)
Method: The pH stability of AB was assessed (C of FIG. 1). For a pH stability experiment, the degree of denaturation in each sample (AB) over time was measured at 25° C. under conditions of pH 3 (20 mM citrate), pH 7 (20 mM Tris-HCl), and pH 9 (20 mM Tris-HCl). […] Since the buffer and AB peaks were not separated at pH 3 using HPLC, AB was quantified through GC/MS analysis. The derivatization process for GC/MS analysis is as follows. After drying a purified sample with a speed vac, 10 μL of 40 mg/mL O-methylhydroxylamine hydrochloride in pyridine was added and reacted at 30° ° C. and 200 rpm for 90 minutes. Then, 45 μL of N-methyl-N-(trimethylsilyl)trifluoroacetamide was added and reacted at 37° C. and 200 rpm for 30 minutes. Instrument conditions for GC/MS analysis are as follows. A DB5-MS capillary column was used in the analysis, and the GC column temperature condition was maintained at 50° C. for 1 minute and then raised to 280° C. and maintained for 5 minutes. 1 μL of sample was analyzed in a splitless mode. Each concentration of […] at pH 7 and pH 9 was analyzed using HPLC. HPX-87H was used as a column, and the sample was analyzed at a column temperature of 65° C. and a flow rate of 0.5 mL/min. 0.005 M sulfuric acid was used as a mobile phase.

HAS2 [2] = assay: HAS2 expression in HaCaT cells by Western blot (moisturizing effect); type: cell-based, human; conditions: for HAS2 expression compared to L-AHG: same concentration (100 μg/mL, FIG. 7)
Text: Hyaluronan (HA) is a glycosaminoglycan composed of D-glucuronic acid and N-acetyl-D-glucosamine. Due to its ability to retain large amounts of water, HA plays an important role in regulating hydration and osmotic pressure. […] is synthesized in cell membranes by HAS1, HAS2, and HAS3, and HAS2 in particular appears in human normal tissues. […] Therefore, increasing HAS2 expression may be a great strategy to maintain skin homeostasis. To determine the AB induction time and AB concentration for HAS2 expression, Western blot analysis was performed. Cells used for the analysis were HaCaT cells, which were cultured at 37° C. in a 5% CO2 atmosphere using DMEM with 10% FBS and penicillin/streptomycin. Cells (1×10^5) were cultured in 6-cm dishes for 24 hours and then starved in serum-free medium for another 24 hours to remove the FBS effect on the activation of the kinase. Then, AB was treated at a certain time and concentration. Cells were lysed with a lysis buffer [20 mM Tris-HCl (pH 7.5), 150 mM NaCl, 1 mM Na2EDTA, 1 mM EGTA, 1% Triton X-100, 2.5 mM sodium pyrophosphate, 1 mM β-glycerophosphate, 1 mM Na3VO4, […] leupeptin, 1 mM phenylmethylsulfonyl fluoride (PMSF), and a protease inhibitor cocktail tablet]. The protein concentration was measured using a dye-conjugated protein assay kit (Bio-Rad Laboratories Inc.) according to the manufacturer's instructions. Dissolved proteins (20-40 μg) were subjected to 10% SDS-PAGE and transferred to a polyvinylidene fluoride (PVDF) membrane by electrophoresis (Millipore Corp., Bedford, MA, USA). After blotting, the membrane was blocked with 5% skim milk for 2 hours and incubated overnight at 4° C. with a primary antibody […]. Subsequently, the membrane was incubated with a secondary antibody (goat anti-rabbit IgG HRP-conjugated secondary antibody), and the protein bound to the antibody was detected using a chemiluminescence detection kit (Amersham Pharmacia Biotech, Piscataway, NJ). Representative values of two independent experiments were used as data. […] The moisturizing activity of AB was confirmed from the result.

[3] = Temperature stability (denaturation/decomposition over time); type: physicochemical; conditions: for Time for which stability was maintained at 4° C. / Time for which stability was maintained at 30° C.: HPLC
Method: The temperature stability of agarobiose was tested. The experimental method measured the denaturation/decomposition degrees of AB and ethyl-agarobioside over time at 4° C., 30° C., and 45° C. […] AB and ethyl-agarobioside were quantified using HPLC.

HaCaT cells = assay: MTT cytotoxicity test in HaCaT keratinocytes; type: cell-based, human; conditions: for Cytotoxicity: HaCaT cells, AB below 100 µg/mL
Method: Cytotoxicity tests were performed using the MTT(3-4,5-dimethylthiazol-2yl)-2,5-diphenyl-2H-tetrazolium bromide) assay. HaCaT cells were cultured in an animal cell incubator at 37° C. and 5% CO2 in a laboratory using Dulbecco's Modified Eagle Medium (DMEM) containing 10% (v/v) FBS, 100 U/mL penicillin, and 100 µg/mL streptomycin as antibiotics. The produced AB was dissolved in DMSO and added to the culture medium at […], and cells were cultured in the medium for 24 hours. The cells were treated with an MTT solution (5 mg/mL) and cultured for another 4 hours, and then an amount of the produced formazan as a blue crystal, was measured by measuring absorbance at 595 nm using an ELISA reader. Toxicity to cells was expressed as a percentage of the average absorbance value of each control group. To investigate the cytotoxicity of AB in HaCaT keratinocytes, when AB was treated at a concentration of […], the degree of change in cell proliferation was calculated compared to control groups treated with only DMSO. The results of Example 1 are shown in A of FIG. 1.
B of FIG. 1 illustrates the presence or absence of a cytotoxic effect when HaCaT keratinocytes are treated with AB according to an example of the present invention. Cell viability was measured to be 100% or more at 100 µg/mL AB.

HAS2 [4] = conditions: Korean Registered Patent No. 10-1525298; cited from earlier work

Structure (SMILES)	Stability over time at pH 3 [1]	Stability over time at pH 7 [1]	Time to complete denaturation / decomposition at pH 9 ([1]; pH 9 (20 mM Tris-HCl)) [weeks]	HAS2 expression, concentration dependence (HAS2 [2]; Western blot)	HAS2 expression (HAS2 [2]; Western blot, 3 hours after treatment)	HAS2 expression compared to L-AHG (HAS2 [2])	Stability at 45° C. [3]	Time for which stability was maintained at 4° C. [3] [weeks]	Time for which stability was maintained at 30° C. [3] [weeks]	Cytotoxicity (HaCaT cells)	Cell viability (HaCaT cells; HaCaT keratinocytes, 24 hours, 100 µg/mL AB, vs DMSO control) [%]	Stability over time at pH 9 ([1]; pH 9 (20 mM Tris-HCl))	Moisturizing activity (HAS2 expression level) (HAS2 [2]; same manner as Example 1)	Conversion product at 45° C. ([3]; 45° C., HPLC analysis of reactant components)	Moisturizing activity in HaCaT cells (previous study) (HAS2 [4])
OC[C@H]1O[C@@H](O[C@H]2[C@H]3OC[C@@H]2OC(O)[C@H]3O)[C@H](O)[C@@H](O)[C@H]1O (mixture of isomers) [AB, agarobiose]	stable	stable	≤ 6	increased HAS2 expression in a concentration-dependent manner	increased HAS2 expression	greatly increased	stability slowly decreased	15	15	no cytotoxicity	≥ 100				
CCOC1O[C@H]2CO[C@H]([C@@H]2O[C@@H]2O[C@H](CO)[C@H](O)[C@H](O)[C@H]2O)[C@@H]1O (stereo partly shown) [ethyl-agarobioside]	maintained	maintained				greatly increased	less stable than AB after 6 weeks	15	15	without cytotoxicity		maintained	exhibits moisturizing activity	converted to AB	
O=C[C@@H](O)[C@@H]1OC[C@H](O)[C@H]1O [L-AHG, 3,6-anhydro-L-galactose]															has moisturizing activity
